Experimental data published in US20240390374A1, “MOCETINOSTAT IN COMBINATION WITH CHEMOTHERAPY TO TREAT RHABDOMYOSARCOMA” (The Regents of the University of California, priority 2021, published 2024).

Assays:
[1] = system: follicular lymphoma and diffuse large B cell lymphoma; settings: cited from earlier work
advanced solid tumors = settings: cited from earlier work
solid tumors = settings: three times per week, with gemcitabine; cited from earlier work
CYP2C9 = CYP2C9 (Homo sapiens, UniProt P11712); settings: cited from earlier work
P-gp = P-gp (Homo sapiens, UniProt P08183); settings: cited from earlier work
[2] = human, in vivo; cited from earlier work
[3] = system: Rhabdomyosarcoma cell lines; experiment: IC50 for mocetinostat across individual cell lines from different sarcoma subtypes (FIG. 1); assay type: cell-based
[4] = system: refractory and/or recurrent rhabdomyosarcoma; assay type: in vivo, human; settings: dose escalation phase; orally 3 times weekly with vinorelbine 25 mg/m2 IV day 1, 8, 15 of 21 day cycles
Description: Methods: This is an investigator initiated Phase 1 single center, open-label, dose escalation/expansion clinical trial. A modified intent to treat approach is used for efficacy analysis for a target accrual of 20 subjects in the dose expansion cohort. Eligibility criteria include subjects >/=18 years old (yo) for the phase 1 dose escalation cohort and >/=12 years old for the phase 1 dose expansion cohort with a diagnosis of R/R RMS. Mocetinostat 40 mg, 70 mg or 90 mg was taken orally 3 times weekly with vinorelbine 25 mg/m2 IV on day 1,8, and 15 in 21 day cycles. PEG-filgrastim or biosimilar was added if subject experienced grade 3/4 neutropenia in a prior cycle. The maximum tolerated dose of mocetinostat in the dose escalation phase was 40 mg, which was selected as the dose for expansion cohort. Subjects were treated until disease progression by RECIST 1.1 or unacceptable toxicity.

[5] = system: CYP2E1, CYP3A, CYP2C8, CYP2C19; settings: cited from earlier work
[6] = in vivo; cited from earlier work
[7] = cited from earlier work
[8] = orally three times per week for 2 of every 3 weeks

Sequence of CYP2C9 (P11712 whole entry): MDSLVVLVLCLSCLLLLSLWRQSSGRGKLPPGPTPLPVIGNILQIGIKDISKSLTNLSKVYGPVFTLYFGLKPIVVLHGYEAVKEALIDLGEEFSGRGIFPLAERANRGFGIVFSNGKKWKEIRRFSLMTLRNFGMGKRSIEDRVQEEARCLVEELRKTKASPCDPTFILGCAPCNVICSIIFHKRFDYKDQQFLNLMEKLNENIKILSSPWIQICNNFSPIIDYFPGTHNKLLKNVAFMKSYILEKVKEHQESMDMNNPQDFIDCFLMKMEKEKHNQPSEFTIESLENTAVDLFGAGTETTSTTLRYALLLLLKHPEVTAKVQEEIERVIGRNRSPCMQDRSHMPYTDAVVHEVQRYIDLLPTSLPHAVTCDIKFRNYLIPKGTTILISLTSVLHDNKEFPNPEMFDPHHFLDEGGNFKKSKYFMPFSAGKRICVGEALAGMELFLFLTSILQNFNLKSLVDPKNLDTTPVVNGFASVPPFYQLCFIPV
Sequence of P-gp (P08183 whole entry): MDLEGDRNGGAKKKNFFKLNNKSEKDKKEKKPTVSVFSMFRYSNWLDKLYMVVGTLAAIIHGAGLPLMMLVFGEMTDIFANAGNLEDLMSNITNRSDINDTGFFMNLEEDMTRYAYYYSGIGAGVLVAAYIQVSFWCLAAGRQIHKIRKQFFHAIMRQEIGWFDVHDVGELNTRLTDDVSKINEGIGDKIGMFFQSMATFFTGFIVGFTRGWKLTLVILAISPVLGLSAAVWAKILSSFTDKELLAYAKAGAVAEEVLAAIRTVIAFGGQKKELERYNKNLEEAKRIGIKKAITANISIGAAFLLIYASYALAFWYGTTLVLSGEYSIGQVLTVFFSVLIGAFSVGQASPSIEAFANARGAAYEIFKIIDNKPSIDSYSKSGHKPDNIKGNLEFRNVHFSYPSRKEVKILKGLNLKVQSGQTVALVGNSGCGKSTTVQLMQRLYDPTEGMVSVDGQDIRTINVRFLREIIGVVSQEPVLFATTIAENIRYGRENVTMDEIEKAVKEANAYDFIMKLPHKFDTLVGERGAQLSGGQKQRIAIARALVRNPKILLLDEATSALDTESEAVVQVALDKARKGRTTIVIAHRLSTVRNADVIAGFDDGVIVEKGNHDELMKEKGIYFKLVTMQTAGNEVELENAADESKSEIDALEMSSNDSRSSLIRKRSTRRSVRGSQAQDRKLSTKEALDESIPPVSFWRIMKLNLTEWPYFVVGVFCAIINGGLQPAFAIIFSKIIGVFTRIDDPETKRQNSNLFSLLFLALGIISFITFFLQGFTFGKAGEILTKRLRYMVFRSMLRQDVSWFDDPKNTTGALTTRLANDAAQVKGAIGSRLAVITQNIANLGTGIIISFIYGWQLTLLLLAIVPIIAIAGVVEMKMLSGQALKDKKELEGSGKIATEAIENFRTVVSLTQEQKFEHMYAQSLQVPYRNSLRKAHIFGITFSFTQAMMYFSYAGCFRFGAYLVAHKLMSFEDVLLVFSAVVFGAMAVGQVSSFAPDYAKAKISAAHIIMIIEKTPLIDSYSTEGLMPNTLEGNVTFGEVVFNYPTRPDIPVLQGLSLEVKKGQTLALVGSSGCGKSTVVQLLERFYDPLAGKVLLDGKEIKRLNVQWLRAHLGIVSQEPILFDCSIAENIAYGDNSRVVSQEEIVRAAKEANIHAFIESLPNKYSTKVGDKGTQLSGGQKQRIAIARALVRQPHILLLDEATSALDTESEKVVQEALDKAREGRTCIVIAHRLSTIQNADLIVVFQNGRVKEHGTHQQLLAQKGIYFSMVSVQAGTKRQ

## Nc1ccccc1NC(=O)c1ccc(CNc2nccc(-c3cccnc3)n2)cc1 [mocetinostat]
[1]; 5 events: pericardial effusion, pericarditis, cardiac tamponade
  patients with pericardial events considered related to mocetinostat: four
[1]; 70-110 mg three times a week
  Grade ≥3 treatment-related fatigue: 23.6%
  Grade ≥3 treatment-related neutropenia: 15.3%
  Grade ≥3 treatment-related thrombocytopenia: 12.5%
[1]; 72 patients, starting doses 70-110 mg three times a week, 4 week cycles
  patients with Grade ≥3 treatment-related AEs: 56.9%
Advanced solid tumors; at the 45 mg/m2/day dose
  patients with dose limiting toxicities (DLTs): 27%
Advanced solid tumors; effect of low pH beverages
  PK interpatient variability: interpatient variability which improved when mocetinostat was coadministered with low pH beverages
Advanced solid tumors; human, in vivo
  hematologic AEs: no hematologic AEs
Advanced solid tumors; [8]
  MTD/RP2D as equivalent fixed dose: about 90 mg/day
  maximum tolerated dose (MTD)/recommended phase II dose (RP2D): 45 mg/m2/day
Solid tumors
  MTD/RP2D of mocetinostat: 90 mg
CYP2C9
  CYP2C9 inhibition: strong CYP2C9 inhibitor
P-gp
  P-gp interaction: a substrate and an inhibitor of P-gp
[2]
  Half-life of elimination: about 10 hours
  accumulation with repeated dosing: little to no accumulation
[3]
  IC50: < 0.1 µM
[4]
  maximum tolerated dose of mocetinostat: 40 mg
[5]
  metabolizing enzymes: metabolized by CYP2E1 and CYP3A and possibly by CYP2C8 and CYP2C19

## CCC1=C[C@@H]2CN(C1)Cc1c([nH]c3ccccc13)[C@@](C(=O)OC)(c1cc3c(cc1OC)N(C)[C@H]1[C@@](O)(C(=O)OC)[C@H](OC(C)=O)[C@]4(CC)C=CCN5CC[C@]31[C@@H]54)C2 [vinorelbine, methyl (1R,9R,10S,11R,12R,19R)-11-acetyloxy-12-ethyl-4-[(12S,14R)-16-ethyl-12-methoxycarbonyl-1,10-diazatetracyclo[12.3.1.03,11.04,9]octadeca-3(11),4,6,8,15-pentaen-12-yl]-10-hydroxy-5-methoxy-8-methyl-8,16-diazapentacyclo[10.6.1.01,9.02,7.016,19]nonadeca-2,4,6,13-tetraene-10 carboxylate]
[6]
  grade II-IV nausea and vomiting: < 10%
  grade III-IV neurotoxicity: rare
[7]; at temperatures up to 25° C. (77° F.)
  stability of unopened vials: up to 72 hours
[7]; normal room light, polypropylene syringes or polyvinyl chloride bags at 5-30° C.
  time diluted vinorelbine may be used: up to 24 hours
